Patent US20030092760A1, “Therapeutic agent for renal failure” (Toray Industries, Inc., priority 2001, published 2003)

Columns and labels:
[1] = test system: ⅚ nephrectomized rat model; assay: Effect on ⅚ nephrectomized rat model: renal functions; type: in vivo, Wistar rats
Experimental: The effect of beraprost sodium on a ⅚ nephrectomized rat model, which has been widely used as a model animal for renal failure, was examined. Two-thirds of the left kidney was removed from each of 4-week-old male Wistar rats (Charles River Japan Inc.) with a razor, and all of the right kidney was then removed therefrom one week after. Three weeks after the initial surgery, blood was collected from each rat through the tail vein and serum creatinine and BUN levels were determined from the blood. At this point of time, the urine was also collected for 24 hours to determine the mass of proteins in the urine. The rats were allocated to one of the treatment groups by the stratifying continuous randomization method based on the mass of proteins in the urine and the body weight (n=8 per group). […] Three weeks after the initial surgery, beraprost sodium or captopril (SIGMA, i.e., a positive control) was orally administered to each rat twice a day everyday, beginning the day on which administration of a drug was started and continued through five weeks after the administration. The determination of the renal functions was performed both three weeks and five weeks after the initial administration of a drug. The photographic images of the renal tissue were observed only five weeks after the initial administration.

[2] = test system: glomerulonephritis model rats in inflammatory stage; assay: Glomerulonephritis model rats, inflammatory stage, oral administration; settings: for Urinary total protein excretion: 7 days after induction (1 week after initial administration); for Increase in urinal total protein excretion (in words): day 1 through day 7 after induction
Experimental: (§1) Eight-week-old male WKY rats (Charles River Japan Inc.) were administered intravenously with rabbit anti-rat glomerular basement membrane antiserum to induce glomerulonephritis. […] The frequency of the administration was twice a day for beraprost sodium and captopril and once a day for prednisolone. After the initial administration of a drug, urinary total protein excretion (which is a measure of renal functions) was determined.

[3] = test system: renal failure rat models of which the primary disease is glomerulonephritis; assay: Renal failure rat models of which the primary disease is glomerulonephritis, subcutaneous osmotic pump; type: in vivo, WKY rats
Text: Renal failure rat models of which the primary disease was glomerulonephritis were used to examine the effect of different 4,8-inter-m-phenylene prostaglandin I2 derivatives including beraprost sodium on the models. […] Two weeks after the induction, blood was collected from each rat through the tail vein to determine blood creatinine and BUN levels. […] Four types of 4,8-inter-m-phenylene prostaglandin I2 derivatives in total, including beraprost sodium, were individually administered subcutaneously to the rats from the back continuously with an osmotic pump (ALZET) for one week, beginning two weeks after induction of glomerulonephritis and continued through three weeks after the induction. The renal functions (i.e., blood creatinine and BUN levels) were determined one week after the initial administration of a drug.

[4] = test system: glomerulonephritis model rats in renal failure stage; assay: Glomerulonephritis model rats, renal failure stage, oral administration; settings: for Increase in urinal total protein excretion (in words): renal failure stage, two weeks through four weeks after induction
Experimental: as §1

[5] = test system: ⅚ nephrectomized rat model; assay: ⅚ nephrectomized rat model: observation of renal tissue images (histopathological change); type: in vivo, Wistar rats; settings: for Framework: Infiltration of mononuclear cells / Renal corpuscle: Cellular filling in glomerulus / Renal corpuscle: Coagulation of glomeruli in Bowman's capsule / Renal corpuscle: Deposition of PAS + materials in Bowman's capsule / Renal corpuscle: Epidermal growth in Bowman's capsule / Renal corpuscle: Glomerular hypertrophy / Renal corpuscle: Glomerulosclerosis / Uriniferous tuble: Basophilic degeneration of tubules / Uriniferous tuble: Proliferation of proximal tubules / Uriniferous tuble: Proteinaceous urinary casts / Uriniferous tuble: Tubular dilation: number of animals with change in 8 animals per group, five weeks after initial administration
Experimental: The effect of beraprost sodium on a ⅚ nephrectomized rat model, which has been widely used as a model animal for renal failure, was examined. Two-thirds of the left kidney was removed from each of 4-week-old male Wistar rats (Charles River Japan Inc.) with a razor, and all of the right kidney was then removed therefrom one week after. Three weeks after the initial surgery, blood was collected from each rat through the tail vein and serum creatinine and BUN levels were determined from the blood. At this point of time, the urine was also collected for 24 hours to determine the mass of proteins in the urine. The rats were allocated to one of the treatment groups by the stratifying continuous randomization method based on the mass of proteins in the urine and the body weight (n=8 per group). There was observed little difference in the initial values of blood creatinine and BUN values among the rats. Three weeks after the initial surgery, beraprost sodium or captopril (SIGMA, i.e., a positive control) was orally administered to each rat twice a day everyday, beginning the day on which administration of a drug was started and continued through five weeks after the administration. The determination of the renal functions was performed both three weeks and five weeks after the initial administration of a drug. The photographic images of the renal tissue were observed only five weeks after the initial administration. […] Five weeks after the initial administration, more exacerbation of chronic renal failure was observed. […] The same tendency was shown five weeks after the initial administration (Table 2).

[6] = 100 μg/kg oral twice a day, five weeks after the administration of a drug
[7] = 100 μg/kg oral twice a day, three weeks after the administration of a drug
[8] = 300 μg/kg oral twice a day, five weeks after the administration of a drug
[9] = 300 μg/kg oral twice a day, three weeks after the administration of a drug
[10] = 60 μg/kg group, 2 weeks after induction (before administration)
[11] = 60 μg/kg s.c. osmotic pump, 3 weeks after induction (1 week after the initial administration)
[12] = 200 μg/kg group, 2 weeks after induction (before administration)
[13] = 200 μg/kg s.c. osmotic pump, 3 weeks after induction (1 week after the initial administration)
[14] = 50 mg/kg oral twice a day, five weeks after the administration of a drug
[15] = 50 mg/kg oral twice a day, three weeks after the administration of a drug
[16] = Table 5, 60 μg/kg group, 2 weeks after induction (before administration)
[17] = Table 5, 60 μg/kg s.c. osmotic pump, 3 weeks after induction (1 week after the initial administration)

CC#CCC(C)[C@H](O)/C=C/C1[C@H](O)C[C@@H]2Oc3c(CCCC(=O)[O-])cccc3[C@H]12.[Na+] (mixture of isomers) [Beraprost sodium, beraprost sodium]
Blood urea nitrogen [1, 6]: 45.5 ± 3.3 mg/dL
Creatinine clearance [1, 6]: 156.9 ± 19.5 μl/min/100 gBW
Urinary protein excretion [1, 6]: 276.5 ± 69.2 mg/24 hr/kgBW
Urinary volume [1, 6]: 21.7 ± 3.1 ml/24 hr
Blood urea nitrogen [1, 7]: 55.9 ± 3.7 mg/dL
Creatinine clearance [1, 7]: 134.1 ± 11.0 μl/min/100 gBW
Urinary protein excretion [1, 7]: 125.3 ± 20.8 mg/24 hr/kgBW
Urinary volume [1, 7]: 20.1 ± 2.8 ml/24 hr
Blood urea nitrogen [1, 8]: 45.1 ± 3.5 mg/dL
Creatinine clearance [1, 8]: 143.5 ± 10.0 μl/min/100 gBW
Urinary protein excretion [1, 8]: 197.1 ± 21.1 mg/24 hr/kgBW
Urinary volume [1, 8]: 20.4 ± 1.7 ml/24 hr
Blood urea nitrogen [1, 9]: 50.9 ± 3.6 mg/dL
Creatinine clearance [1, 9]: 136.4 ± 9.9 μl/min/100 gBW
Urinary protein excretion [1, 9]: 154.4 ± 53.0 mg/24 hr/kgBW
Urinary volume [1, 9]: 20.4 ± 3.7 ml/24 hr
Effect on urinary protein level, creatinine clearance and BUN level (in words) ([1]; three weeks after the initial administration, same tendency five weeks after): significant prevention of increase in the urinary protein level and prevention of reduction in the creatinine clearance and increase in the BUN level
Urinary total protein excretion ([2]; 300 μg/kg oral twice a day): 17 ± 7 mg/24 hr
Increase in urinal total protein excretion (in words) [2]: markedly prevented
BUN [3, 10]: 28 ± 3 mg/dL
Blood creatinine [3, 10]: 0.61 ± 0.07 mg/dL
BUN [3, 11]: 31 ± 2 mg/dL
Blood creatinine [3, 11]: 0.48 ± 0.04 mg/dL
BUN [3, 12]: 30 ± 3 mg/dL
Blood creatinine [3, 12]: 0.62 ± 0.06 mg/dL
BUN [3, 13]: 25 ± 1 mg/dL
Blood creatinine [3, 13]: 0.49 ± 0.04 mg/dL
Blood creatinine and BUN levels compared with the control group (in words) ([3]; three weeks after the induction of glomerulonephritis): significantly decreased
Urinary total protein excretion ([4]; 300 μg/kg group, renal failure stage Exp. 1, 2 weeks after induction (before administration)): 374 ± 21 mg/24 hr
Urinary total protein excretion ([4]; 300 μg/kg group, renal failure stage Exp. 2, 2 weeks after induction (before administration)): 321 ± 23 mg/24 hr
Urinary total protein excretion ([4]; 300 μg/kg oral twice a day, renal failure stage Exp. 1, 3 weeks after induction (1 week after initial administration)): 300 ± 51 mg/24 hr
Urinary total protein excretion ([4]; 300 μg/kg oral twice a day, renal failure stage Exp. 2, 4 weeks after induction (2 week after initial administration)): 295 ± 46 mg/24 hr
Increase in urinal total protein excretion (in words) [4]: markedly prevented
Framework: Infiltration of mononuclear cells ([5]; 100 μg/kg): 7
Renal corpuscle: Cellular filling in glomerulus ([5]; 100 μg/kg): 7
Renal corpuscle: Coagulation of glomeruli in Bowman's capsule ([5]; 100 μg/kg): 2
Renal corpuscle: Deposition of PAS + materials in Bowman's capsule ([5]; 100 μg/kg): 2
Renal corpuscle: Epidermal growth in Bowman's capsule ([5]; 100 μg/kg): 1
Renal corpuscle: Glomerular hypertrophy ([5]; 100 μg/kg): 3
Renal corpuscle: Glomerulosclerosis ([5]; 100 μg/kg): 2
Uriniferous tuble: Basophilic degeneration of tubules ([5]; 100 μg/kg): 8
Uriniferous tuble: Proliferation of proximal tubules ([5]; 100 μg/kg): 8
Uriniferous tuble: Proteinaceous urinary casts ([5]; 100 μg/kg): 5
Uriniferous tuble: Tubular dilation ([5]; 100 μg/kg): 8
Framework: Infiltration of mononuclear cells ([5]; 300 μg/kg): 7
Renal corpuscle: Cellular filling in glomerulus ([5]; 300 μg/kg): 4
Renal corpuscle: Coagulation of glomeruli in Bowman's capsule ([5]; 300 μg/kg): 1
Renal corpuscle: Deposition of PAS + materials in Bowman's capsule ([5]; 300 μg/kg): 1
Renal corpuscle: Epidermal growth in Bowman's capsule ([5]; 300 μg/kg): 1
Renal corpuscle: Glomerular hypertrophy ([5]; 300 μg/kg): 2
Renal corpuscle: Glomerulosclerosis ([5]; 300 μg/kg): 1
Uriniferous tuble: Basophilic degeneration of tubules ([5]; 300 μg/kg): 8
Uriniferous tuble: Proliferation of proximal tubules ([5]; 300 μg/kg): 8
Uriniferous tuble: Proteinaceous urinary casts ([5]; 300 μg/kg): 2
Uriniferous tuble: Tubular dilation ([5]; 300 μg/kg): 8
Progress of the glomerular conditions (renal tissue images, in words) ([5]; five weeks after the initial administration): markedly prevented

C[C@H](CS)C(=O)N1CCC[C@H]1C(=O)O [Captopril, captopril, reference compound]
Blood urea nitrogen [1, 14]: 47.8 ± 5.2 mg/dL
Urinary protein excretion [1, 14]: 255.5 ± 76.6 mg/24 hr/kgBW
Blood urea nitrogen [1, 15]: 51.4 ± 3.7 mg/dL
Urinary protein excretion [1, 15]: 136.8 ± 29.9 mg/24 hr/kgBW
Urinary total protein excretion ([2]; 50 mg/kg oral twice a day): 75 ± 14 mg/24 hr
Increase in urinal total protein excretion (in words) [2]: effective prevention
Urinary total protein excretion ([4]; 50 mg/kg group, renal failure stage Exp. 2, 2 weeks after induction (before administration)): 318 ± 22 mg/24 hr
Urinary total protein excretion ([4]; 50 mg/kg oral twice a day, renal failure stage Exp. 2, 4 weeks after induction (2 week after initial administration)): 504 ± 51 mg/24 hr
Urinary total protein excretion ([4]; 100 mg/kg group, renal failure stage Exp. 2, 2 weeks after induction (before administration)): 325 ± 6 mg/24 hr
Urinary total protein excretion ([4]; 100 mg/kg oral twice a day, renal failure stage Exp. 2, 4 weeks after induction (2 week after initial administration)): 517 ± 33 mg/24 hr
Increase in urinal total protein excretion (in words) [4]: no effective prevention
Framework: Infiltration of mononuclear cells ([5]; 50 μg/kg): 7
Renal corpuscle: Cellular filling in glomerulus ([5]; 50 μg/kg): 4
Renal corpuscle: Coagulation of glomeruli in Bowman's capsule ([5]; 50 μg/kg): 2
Renal corpuscle: Deposition of PAS + materials in Bowman's capsule ([5]; 50 μg/kg): 1
Renal corpuscle: Epidermal growth in Bowman's capsule ([5]; 50 μg/kg): 2
Renal corpuscle: Glomerular hypertrophy ([5]; 50 μg/kg): 1
Renal corpuscle: Glomerulosclerosis ([5]; 50 μg/kg): 2
Uriniferous tuble: Basophilic degeneration of tubules ([5]; 50 μg/kg): 6
Uriniferous tuble: Proliferation of proximal tubules ([5]; 50 μg/kg): 8
Uriniferous tuble: Proteinaceous urinary casts ([5]; 50 μg/kg): 4
Uriniferous tuble: Tubular dilation ([5]; 50 μg/kg): 8

O=C([O-])CCCc1cccc2c1OC1CC(O)C(C#CC(O)C3CCCCC3)C21.[Na+] (centres unmarked) [Compound 1]
BUN [3, 16]: 29 ± 2 mg/dL
Blood creatinine [3, 16]: 0.44 ± 0.05 mg/dL
BUN [3, 17]: 27 ± 2 mg/dL
Blood creatinine [3, 17]: 0.41 ± 0.02 mg/dL

O=C([O-])/C=C/Cc1cccc2c1OC1CC(O)C(/C=C/C(O)c3ccccc3)C21.[Na+] (centres unmarked) [Compound 2]
BUN [3, 16]: 28 ± 2 mg/dL
Blood creatinine [3, 16]: 0.45 ± 0.04 mg/dL
BUN [3, 17]: 31 ± 3 mg/dL
Blood creatinine [3, 17]: 0.44 ± 0.05 mg/dL

O=C([O-])CCCc1cccc2c1OC1CC(O)C(/C=C/C(O)c3ccccc3)C21.[Na+] (centres unmarked) [Compound 3]
BUN [3, 16]: 28 ± 3 mg/dL
Blood creatinine [3, 16]: 0.45 ± 0.05 mg/dL
BUN [3, 17]: 30 ± 3 mg/dL
Blood creatinine [3, 17]: 0.39 ± 0.04 mg/dL

C[C@]12C=CC(=O)C=C1CC[C@@H]1[C@@H]2[C@@H](O)C[C@@]2(C)[C@H]1CC[C@]2(O)C(=O)CO [Prednisolone, prednisolone]
Urinary total protein excretion ([2]; 2 mg/kg oral once a day): 38 ± 8 mg/24 hr
Increase in urinal total protein excretion (in words) [2]: effective prevention
Urinary total protein excretion ([4]; 2 mg/kg group, renal failure stage Exp. 1, 2 weeks after induction (before administration)): 368 ± 20 mg/24 hr
Urinary total protein excretion ([4]; 2 mg/kg oral once a day, renal failure stage Exp. 1, 3 weeks after induction (1 week after initial administration)): 456 ± 78 mg/24 hr
Increase in urinal total protein excretion (in words) [4]: no effective prevention
